# Test results reported in ChEMBL document CHEMBL1124530, “Dimethylsulfonium analogues of the muscarinic agent McN-A-343: [4-[[N-(3- or 4-halophenyl)carbamoyl]oxy]-2-butynyl] dimethylsulfonium perchlorates” (1989).
# The source made the active and inactive calls.
# What was measured:
# Rattus norvegicus [1] = assay: Ganglionic muscarinic activity was determined by the changes in mean arterial blood pressure of the pithed rat treated with to produce a half-maximal pressure response up i.v. administration; Inactive when assayed a dose range of 1-10 umol/Kg; format: functional, organism-based
# Rattus norvegicus [2] = assay: Ganglionic muscarinic activity was determined by the changes in mean arterial blood pressure of the pithed rat treated with to produce a half-maximal pressure response up i.v. administration; format: functional; details: iv
# [3] = biological target: T1, Muscarinic acetylcholine receptor (Homo sapiens) (UniProt P20309+P08173+P11229+P08172+P08912); assay: Tested in vitro for agonistic activity of compound towards muscarinic receptor in the concentration range of 1xe-6 to 1xe-4 M of guinea pig ileum; Inactive; format: functional, tissue-based; details: Cavia porcellus, target entry is the homologue from another species
# [4] = biological target: T1, Muscarinic acetylcholine receptor (Homo sapiens); assay: Tested in vitro for agonistic activity of compound towards muscarinic receptor in the concentration range of 1xe-6 to 1xe-4 M of guinea pig ileum; Responce varied in the range 17- 40%; format: functional, tissue-based; details: Cavia porcellus, filed as partial agonist, target entry is the homologue from another species
# [5] = Equipotent molar ratio relative to carbachol for nicotininc activity in frog was determined; format: functional
Compound,ED50 (Rattus norvegicus [1]),ED50 (Rattus norvegicus [2]),Max respose [3],Max respose [4],Ratio [5]
CN(C)CC#CCOC(=O)Nc1ccc(Br)cc1,Inactive when assayed a dose range of 1-10 umol/Kg,–,–,–,–
C[N+](C)(C)CC#CCOC(=O)Nc1cccc(Cl)c1,–,0.59 µmol/kg,–,–,–
C[S+](C)CC#CCOC(=O)Nc1ccc(Br)cc1.[O-][Cl+3]([O-])([O-])[O-],–,1.56 µmol/kg,inactive,–,–
C[N+](C)(C)CC#CCOC(=O)Nc1cccc(Br)c1,–,0.7 µmol/kg,–,Partial agonist,4
C[S+](C)CC#CCOC(=O)Nc1ccc(Cl)cc1.[O-][Cl+3]([O-])([O-])[O-],–,1.52 µmol/kg,inactive,–,–
C[S+](C)CC#CCOC(=O)Nc1cccc(Br)c1.[O-][Cl+3]([O-])([O-])[O-],–,1.47 µmol/kg,inactive,–,–
C[N+](C)(C)CC#CCOC(=O)Nc1ccc(Br)cc1,–,0.22 µmol/kg,–,Partial agonist,3.7
CN(C)CC#CCOC(=O)Nc1cccc(Br)c1,Inactive when assayed a dose range of 1-10 umol/Kg,–,–,–,–
C[S+](C)CC#CCOC(=O)Nc1cccc(Cl)c1.[O-][Cl+3]([O-])([O-])[O-],–,1.49 µmol/kg,inactive,–,–
